IC50 data for 18 molecules are collected here from patent publication US8471005B2 (Cephalon, Inc., priority 2008, dated 2013).

One experiment deals with T1, ALK (Homo sapiens, UniProt Q9UM73).
T1 construct: host or cells: baculovirus expression system
The experiment is described as follows: ALK Kinase Assay (ELISA/TRF, PLC-γ substrate). The experiment is classed as biochemical. Conditions: read-out: ALK Potency. In a few lines: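 PLC-γ coat 10 μg/mL in TBS; ALK 30 ng/ml added to start; 37° C, 15 min; Eu-N1 PT66 antibody detection (TRF). IC50: % inhibition vs log10 [cpd], variable-slope sigmoidal fit.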

The target of the next experiment is T2, JAK2 (Homo sapiens, UniProt O60674).
T2 construct: host or cells: baculovirus expression system
In words: Recombinant Human JAK2 Kinase Assay (TRF). Format: biochemical. The note with it: read-out: JAK2 Potency. In outline: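 TRF read-out: Eu-N1 PY100 anti-phosphotyrosine antibody detects product. Enzyme is baculovirus-expressed JAK2 at 15 ng/ml; substrate is a biotinyl 15-mer peptide bound to Neutravidin-coated wells. Buffer 20 mM HEPES pH 7.2, 0.2 μM ATP, 1 mM MnCl2, 0.1% BSA, 2.5% DMSO final; 20 min, RT.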

[1] abbreviates: ALK kinase inhibition, 1 μM ATP.
The mark [2] stands for this setting: JAK2 kinase inhibition, 0.2 μM ATP.

Where two headings read alike, the source gives them in different places.

T1 sequence (Q9UM73 19-1620): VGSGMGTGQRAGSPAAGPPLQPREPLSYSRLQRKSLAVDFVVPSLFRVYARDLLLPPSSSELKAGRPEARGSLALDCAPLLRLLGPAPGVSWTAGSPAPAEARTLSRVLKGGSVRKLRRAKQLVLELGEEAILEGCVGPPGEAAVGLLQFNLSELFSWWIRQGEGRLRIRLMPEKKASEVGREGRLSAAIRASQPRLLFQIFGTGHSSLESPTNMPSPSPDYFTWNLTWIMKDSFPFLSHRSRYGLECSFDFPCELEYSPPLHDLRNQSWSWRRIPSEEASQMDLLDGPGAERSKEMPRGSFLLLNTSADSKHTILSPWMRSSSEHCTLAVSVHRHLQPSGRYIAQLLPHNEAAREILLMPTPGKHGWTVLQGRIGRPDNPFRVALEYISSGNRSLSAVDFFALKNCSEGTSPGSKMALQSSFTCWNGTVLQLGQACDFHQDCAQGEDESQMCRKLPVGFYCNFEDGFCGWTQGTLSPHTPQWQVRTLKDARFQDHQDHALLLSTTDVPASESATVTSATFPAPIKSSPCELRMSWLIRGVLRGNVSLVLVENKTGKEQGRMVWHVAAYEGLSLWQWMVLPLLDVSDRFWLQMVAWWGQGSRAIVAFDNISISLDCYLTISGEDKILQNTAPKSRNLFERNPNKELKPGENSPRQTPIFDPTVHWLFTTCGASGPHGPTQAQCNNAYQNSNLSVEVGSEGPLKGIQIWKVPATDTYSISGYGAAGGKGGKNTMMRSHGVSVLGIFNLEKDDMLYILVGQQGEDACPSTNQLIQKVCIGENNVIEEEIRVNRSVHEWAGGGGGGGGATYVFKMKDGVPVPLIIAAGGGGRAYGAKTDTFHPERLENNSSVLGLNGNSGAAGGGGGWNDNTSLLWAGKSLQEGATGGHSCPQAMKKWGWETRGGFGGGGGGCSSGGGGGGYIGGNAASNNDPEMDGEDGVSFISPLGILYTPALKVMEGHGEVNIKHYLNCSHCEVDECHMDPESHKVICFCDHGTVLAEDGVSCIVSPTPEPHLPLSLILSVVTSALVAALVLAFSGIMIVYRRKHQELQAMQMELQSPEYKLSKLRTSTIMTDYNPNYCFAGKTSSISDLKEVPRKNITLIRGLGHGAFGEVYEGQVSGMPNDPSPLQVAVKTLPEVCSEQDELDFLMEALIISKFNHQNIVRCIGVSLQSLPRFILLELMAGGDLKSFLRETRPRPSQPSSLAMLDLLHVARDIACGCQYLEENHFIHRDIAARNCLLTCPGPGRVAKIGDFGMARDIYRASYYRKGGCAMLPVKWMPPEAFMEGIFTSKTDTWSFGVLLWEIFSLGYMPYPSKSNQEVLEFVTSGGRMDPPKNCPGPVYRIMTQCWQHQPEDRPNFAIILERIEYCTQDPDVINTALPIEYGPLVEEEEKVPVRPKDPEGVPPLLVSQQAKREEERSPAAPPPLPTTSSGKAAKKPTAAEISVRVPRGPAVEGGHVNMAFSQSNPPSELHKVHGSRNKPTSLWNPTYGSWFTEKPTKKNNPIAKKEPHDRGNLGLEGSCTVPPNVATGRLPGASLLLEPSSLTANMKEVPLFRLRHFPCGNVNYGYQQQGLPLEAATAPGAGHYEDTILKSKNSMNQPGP
T2 sequence (O60674 whole entry): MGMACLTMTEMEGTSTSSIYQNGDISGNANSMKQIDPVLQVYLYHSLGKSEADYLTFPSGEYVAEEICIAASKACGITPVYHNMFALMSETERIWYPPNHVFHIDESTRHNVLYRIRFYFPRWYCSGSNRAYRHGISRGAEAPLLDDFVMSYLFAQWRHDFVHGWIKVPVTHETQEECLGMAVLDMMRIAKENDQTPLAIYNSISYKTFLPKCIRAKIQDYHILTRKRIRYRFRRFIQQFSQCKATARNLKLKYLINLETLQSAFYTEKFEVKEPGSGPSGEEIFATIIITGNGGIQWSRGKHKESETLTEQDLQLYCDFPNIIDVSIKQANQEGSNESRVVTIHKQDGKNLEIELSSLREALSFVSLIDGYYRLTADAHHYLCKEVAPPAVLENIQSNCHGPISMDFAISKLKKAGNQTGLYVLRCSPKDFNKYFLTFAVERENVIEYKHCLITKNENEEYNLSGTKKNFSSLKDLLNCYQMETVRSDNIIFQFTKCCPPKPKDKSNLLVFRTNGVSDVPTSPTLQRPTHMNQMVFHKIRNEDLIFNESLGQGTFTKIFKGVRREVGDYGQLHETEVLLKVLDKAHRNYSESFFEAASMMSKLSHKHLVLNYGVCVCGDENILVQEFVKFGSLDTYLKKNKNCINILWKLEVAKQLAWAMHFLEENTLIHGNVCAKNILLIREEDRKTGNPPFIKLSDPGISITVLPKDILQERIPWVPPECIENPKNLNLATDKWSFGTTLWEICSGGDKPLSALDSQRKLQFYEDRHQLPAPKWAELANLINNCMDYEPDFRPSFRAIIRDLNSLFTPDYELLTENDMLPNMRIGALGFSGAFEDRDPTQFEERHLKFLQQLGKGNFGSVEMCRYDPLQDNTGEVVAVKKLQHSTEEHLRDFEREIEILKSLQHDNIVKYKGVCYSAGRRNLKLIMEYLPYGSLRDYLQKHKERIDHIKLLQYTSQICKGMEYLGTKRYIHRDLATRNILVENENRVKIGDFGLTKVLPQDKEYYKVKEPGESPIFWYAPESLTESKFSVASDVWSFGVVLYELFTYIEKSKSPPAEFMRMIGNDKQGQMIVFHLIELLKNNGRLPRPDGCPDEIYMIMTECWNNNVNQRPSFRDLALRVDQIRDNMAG

`COc1cc(C2CCNCC2)ccc1Nc1ncc2ccc(-c3ccc(C)cc3N(C)S(C)(=O)=O)n2n1` [Example 1281, N-{2-[2-(2-Methoxy-4-piperidin-4-yl-phenylamino)-pyrrolo[2,1-f][1,2,4]triazin-7-yl]-5-methyl-phenyl}-N-methyl-methanesulfonamide]: the IC50 at ALK (setting [1]) was under 100 nM; at JAK2 (setting [2]), 100 to 1000 nM.
For `COc1cc(N2CCC(N3CCOCC3)CC2)c(C)cc1Nc1ncc2ccc(-c3ccccc3OC)n2n1` [Example 539], in that order: under 100 nM and under 100 nM.
`COc1cc(CN2CCN(C)CC2)ccc1Nc1ncc2ccc(-c3ccccc3N(C)S(C)(=O)=O)n2n1` [Example 1251, N-(2-{2-[2-Methoxy-4-(4-methyl-piperazin-1-ylmethyl)-phenylamino]-pyrrolo[2,1-f][1,2,4]triazin-7-yl}-phenyl)-N-methyl-methanesulfonamide]: the IC50 on ALK (setting [1]) was under 100 nM; on JAK2 (setting [2]), 1000 to 10000 nM.
For `COc1cc2c(cc1Nc1ncc3ccc(-c4ccccc4N(C)S(C)(=O)=O)n3n1)CN(C(=O)CN)C2` [Example 879, N-(2-{2-[2-(2-Amino-acetyl)-6-methoxy-2,3-dihydro-1H-isoindol-5-ylamino]-pyrrolo[2,1-f][1,2,4]triazin-7-yl}-phenyl)-N-methyl-methanesulfonamide], the IC50 was under 100 nM at ALK (setting [1]) and 100 to 1000 nM at JAK2 (setting [2]).
Take `CN1CCN(C(=O)c2cccc(Nc3ncc4ccc(-c5cccc(Cl)c5)n4n3)c2)CC1` [Example 340, {3-[7-(3-Chloro-phenyl)-pyrrolo[2,1-f][1,2,4]triazin-2-ylamino]-phenyl}-(4-methyl-piperazin-1-yl)-methanone]: the values for the IC50 at ALK (ALK Kinase Inhibition) and at JAK2 (JAK2 Kinase Inhibition) were 100 to 1000 nM and under 100 nM, respectively.
On the same counts, the results for `COc1cc(N2CCN(C3CCN(C)CC3)CC2)ccc1Nc1ncc2ccc(-c3ccccc3OC)n2n1` [Example 231, {2-Methoxy-4-[4-(1-methyl-piperidin-4-yl)-piperazin-1-yl]-phenyl}-[7-(2-methoxy-phenyl)-pyrrolo[2,1-f][1,2,4]triazin-2-yl]-amine] are under 100 nM and under 100 nM.
In the case of `COc1cc(N2CCC(N3CCOCC3)CC2)ccc1Nc1ncc2ccc(-c3ccc(Cl)cc3OC)n2n1` [Example 486, [7-(4-Chloro-2-methoxy-phenyl)-pyrrolo[2,1-f][1,2,4]triazin-2-yl]-[2-methoxy-4-(4-morpholin-4-yl-piperidin-1-yl)-phenyl]-amine], the IC50 on ALK (setting [1]) and on JAK2 (setting [2]) was under 100 nM in each case.
In the case of `COc1ccc(-c2ccc3cnc(Nc4ccc(C5CCN(C)CC5)cc4)nn23)cn1` [Example 1180, [7-(6-Methoxy-pyridin-3-yl)-pyrrolo[2,1-f][1,2,4]triazin-2-yl]-[4-(1-methyl-piperidin-4-yl)-phenyl]-amine], the figures for the IC50 at ALK (setting [1]) and at JAK2 (setting [2]) were 100 to 1000 nM and under 100 nM, respectively.
For `COc1cc(N(C)C(=O)CN2CCN(C)CC2)ccc1Nc1ncc2ccc(-c3ccccc3N(C)S(C)(=O)=O)n2n1` [Example 471, N-(4-{7-[2-(Methanesulfonyl-methyl-amino)-phenyl]-pyrrolo[2,1-f][1,2,4]triazin-2-ylamino}-3-methoxy-phenyl)-N-methyl-2-(4-methyl-piperazin-1-yl)-acetamide], in that order: 100 to 1000 nM and 1000 to 10000 nM.
For the molecule `COc1ccccc1-c1ccc2cnc(Nc3ccc(N4CCOCC4)nc3)nn12` [Example 47, [7-(2-Methoxy-phenyl)-pyrrolo[2,1-f][1,2,4]triazin-2-yl]-(6-morpholin-4-yl-pyridin-3-yl)-amine], the IC50 was 100 to 1000 nM on ALK (ALK Kinase Inhibition) and under 100 nM at JAK2 (JAK2 Kinase Inhibition).
On the same counts, the results for `COc1ccccc1NCc1ccc2cnc(Nc3ccc(N4CCN(C)CC4)cc3)nn12` [Example 365, {7-[(2-Methoxy-phenylamino)-methyl]-pyrrolo[2,1-f][1,2,4]triazin-2-yl}-[4-(4-methyl-piperazin-1-yl)-phenyl]-amine] are 1000 to 10000 nM and under 100 nM.
For the molecule `COc1cc(N2CCN(C[C@H](C)O)CC2)ccc1Nc1ncc2ccc(-c3cccc4c3OCCO4)n2n1` [Example 547, (S)-1-(4-{4-[7-(2,3-Dihydro-1,4-benzodioxin-5-yl)-pyrrolo[2,1-f][1,2,4]triazin-2-ylamino]-3-methoxy-phenyl}-piperazin-1-yl)-propan-2-ol], the IC50 at ALK (setting [1]) and on JAK2 (setting [2]) was under 100 nM in each case.
Take `COc1cc(N2CCC(N3CCN(C)CC3)CC2)ccc1Nc1ncc2ccc(-c3cccnc3)n2n1` [Example 241]: the IC50 at ALK (ALK Kinase Inhibition) was under 100 nM; at JAK2 (JAK2 Kinase Inhibition) it was 100 to 1000 nM.
Turning to `Cn1cnc2ccc(Nc3ncc4ccc(-c5ccccc5NS(C)(=O)=O)n4n3)cc21` [Example 1310, N-{2-[2-(3-Methyl-3H-benzoimidazol-5-ylamino)-pyrrolo[2,1-f][1,2,4]triazin-7-yl]-phenyl}-methanesulfonamide], the IC50 on ALK (setting [1]) is 100 to 1000 nM; at JAK2 (setting [2]) it was under 100 nM.
For `Cn1cc(-c2ccc3cnc(Nc4cccc(-n5cccn5)c4)nn23)cn1` [Example 964, [7-(1-Methyl-1H-pyrazol-4-yl)pyrrolo[2,1f][1,2,4]triazin-2-yl]-(3-pyrazol-1-yl-phenyl)-amine], the IC50 was 1000 to 10000 nM at ALK (setting [1]) and under 100 nM at JAK2 (setting [2]).
On the same counts, the results for `CN1CCN(c2cccc(Nc3ncc4ccc(NCc5cccnc5)n4n3)c2)CC1` [Example 1168, N-(2)-[3-(4-Methyl-piperazin-1-yl)-phenyl]-N(7)-pyridin-3-ylmethyl-pyrrolo[2,1-f][1,2,4]triazine-2,7-diamine] are 1000 to 10000 nM and under 100 nM.
On to `COc1cc(N2CCC[C@H](CN3CCN(C)CC3)C2)ccc1Nc1ncc2ccc(-c3ccccc3N(C)S(C)(=O)=O)n2n1` [Example 465, N-[2-(2-{2-Methoxy-4-[(R)-3-(4-methyl-piperazin-1-ylmethyl)-piperidin-1-yl]-phenylamino}-pyrrolo[2,1-f][1,2,4]triazin-7-yl)-phenyl]-N-methyl-methanesulfonamide], for which the IC50 on ALK (ALK Kinase Inhibition) is under 100 nM; on JAK2 (JAK2 Kinase Inhibition), 100 to 1000 nM.
Turning to “N-{2-[2-(1-Methyl-2-oxo-2,3,4,5-tetrahydro-1H-benzo[b]azepin-7-ylamino)pyrrolo[2,1-f][1,2,4]triazin-7-yl]-phenyl}methanesulfonamide [Example 625]”, the IC50 was 100 to 1000 nM on ALK (setting [1]) and under 100 nM on JAK2 (setting [2]).
